Laboratory results as given in PubChem BioAssay AID2060486 (Molecular Pharmacology Branch, DTP, NCI, 2025).
Where “and” joins values, the source holds several entries; their conditions need not be identical. Identical values can stand only once.

Tested on: IGROV1 complex spheroids (HUVEC, MSC), viability % test/control
Assay: Anticancer human tumor IGROV1 cell line growth inhibition [GQUAD];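 note: spheroids exposed to compounds for 7 days before readout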
Settings: for viability, T/C: stronger effect = lower value
Excerpt: DNA G-quadruplex Stabilizer Agents in Combinations in Complex Spheroids
A high-throughput screen of multi-cell type tumor spheroids was designed to identify active combinations of DNA G-quadruplex stabilizer agents and targeted small molecules. Complex spheroids include a stromal component modeled by human endothelial cells (HUVEC) and fibroblasts modeled by human mesenchymal stem cells (MSCs). The concentration ranges selected for each drug and investigational agent were based upon clinically achievable concentrations if the clinical Cmax of the agent was known.
Compounds. The drugs and investigational agents: pidnarulex (CX-5461; NSC782164), APTO-253 (NSC789042), BRACO-19 (NSC847499), peposertib (NSC802822), ceralasertib (NSC780249), elimusertib (NSC800525), camonsertib (NSC841442), AZD-1390 (NSC803789), olaparib (NSC753686), talazoparib (NSC767125), ART-558 (NSC835418), sotorasib (NSC818433), MRTX-1133 (NSC836407), SN-38 (NSC673596), topotecan (NSC609699), etoposide (NSC141540), doxorubicin (NSC123127), gemcitabine (NSC613327), 5-fluorouracil (NSC19893), paclitaxel (NSC125973), vemurafenib (NSC761431), panobinostat (NSC761190), R-306465 (JNJ-16241199; NSC773264), adavosertib (NSC754352), TP-3654 (NSC805149), carboplatin (NSC241240), KSQ-4279 (NSC840948), and staurosporine (NSC755774) were obtained from the National Cancer Institute (NCI) Developmental Therapeutics Program Chemical Repository (34). The FDA-approved anticancer drug set is available from the NCI Developmental Therapeutics Program. […] The stock solutions were prepared in dimethyl sulfoxide (DMSO, Sigma-Aldrich, St. Louis, MO, cat. D2650) at 800-fold the tested concentration and stored at -70 degrees C prior to their use. All drugs and investigational agents were tested over a range starting from a high concentration at or near the clinical Cmax and decreasing in half-log increments. If the clinical Cmax for an agent had not been determined, the highest concentration tested was 10 microM.
2.3 Cell Culture. All cells were maintained in an incubator at 37 degrees C and 5% CO2 with 95% humidity. The PDC lines were cultured according to standard operating procedures established by the NCI PDMR. All PDCs were thawed and cultured in Matrigel-coated flasks prepared with a working solution of 1X Ham's F-12 nutrient mix, without supplementation (Invitrogen, cat. 11765054), 100 U/mL penicillin-streptomycin (Invitrogen, cat. 15140122), and 2.5% Matrigel (Corning Inc., cat. 354248) for the first three passages. The 857933-349-R-J2-PDC line was cultured in 6C/Colon 1B media, which includes advanced DMEM/F-12 (Thermo Fisher Scientific, cat. 12634028), 10 mM HEPES (Thermo Fisher Scientific, cat. 15630080), 1X GlutaMAX supplement (Thermo Fisher Scientific, cat. 35050061), 0.1 mg/mL primocin (InvivoGen, cat. ant-pm-2), 10% defined fetal bovine serum, heat inactivated (HyClone Laboratories Inc., cat. SH30070.03HI), 50% L-WRN conditioned media (ATCC, cat. CRL-3276), 1.25 mM N-Acetyl-L-cysteine (Sigma-Aldrich, cat. A9165), 10 mM nicotinamide (Sigma-Aldrich, cat. N0636), 1X B-27 supplement (Thermo Fisher Scientific, cat. 17504044), 1X N-2 supplement (Thermo Fisher Scientific, cat. 17502048), 10 microM Y-27632 dihydrochloride (Tocris Bioscience, cat. 1254), and 50 ng/mL human EGF recombinant protein (Thermo Fisher Scientific, cat. PHG0311). The 485176-168-R4-J1-PDC line was cultured in Panc media, which includes all 6C/Colon 1B media components plus 100 ng/mL human FGF-10 (Thermo Fisher Scientific, cat. 100-26), 500 nM SB-431542 (Selleckchem, cat. S1067), and gastrin (Tocris, cat. 3006).
[…]

[1] = compound alone, run of 03/18/2024

Compound	viability, T/C (compound 0.0316 µM)	viability, T/C (compound 0.1 µM)	viability, T/C (compound 0.316 µM)	viability, T/C (compound 1 µM)	viability, T/C (compound 3.16 µM)	viability, T/C (compound 10 µM)	IC50 (curve of compound)	IC50 [1]	IC50 (compound alone, run of 03/26/2024)	viability, T/C (compound 0.000999 µM)	viability, T/C (compound 0.00316 µM)	viability, T/C (compound 0.00999 µM)	viability, T/C (compound 0.0999 µM)
COc1cc(C2c3cc4c(cc3C(OC3OC5COC(C)OC5C(O)C3O)C3COC(=O)C23)OCO4)cc(OC)c1O (stereo not given)	87.7% and 74.7% and 87.1%	50.5% and 54.1% and 56.5%	23.5% and 21.2% and 26.5%	14% and 12.6% and 12.7%	10.9% and 11.7% and 9.02%	5.01% and 6.17% and 5.68%	99.8 nM and 115 nM and 128 nM						
COc1ccc([C@@H](O)c2cc(-c3ncnc4cc(N5CCOCC5)ccc34)c(F)cc2Cl)nn1	98.6% and 95.7% and 99.4%	88.4% and 81.6% and 65.6%	91.1% and 92.8% and 94.7%	50.6% and 64.3% and 60.5%	20.1% and 18% and 17.6%	6.24% and 5.2% and 5.02%	1100 nM and 1440 nM and 1360 nM						
COc1cccc2c1C(=O)c1c(O)c3c(c(O)c1C2=O)CC(O)(C(=O)CO)CC3OC1CC(N)C(O)C(C)O1 (stereo not given)	67.5% and 64.3% and 55.3%	16.6% and 19.5% and 22.7%	8.67% and 8.83% and 8.72%	3.86% and 4.47% and 4.45%	0.12% and 0.15% and 0.11%	0.59% and 1.33% and 0.9%	47.2 nM and 45.8 nM and 37.9 nM						
COc1ncnc(C2CC2)c1-c1ncc2cnn(Cc3ccc(-c4nc(C(F)(F)F)cn4C(C)C)cc3)c2n1	99.3% and 85% and 100%	82.7% and 93.3% and 87%	94.9% and 98.1% and 93%	90.1% and 91.9% and 96.5%	78.2% and 69.5% and 96.9%	94.5% and 82.1% and 77.6%	> 10000 nM						
Cc1[nH]c2ccc(F)cc2c1-c1nc2c3cccnc3c3ncccc3c2[nH]1		101% [middle of 12 runs]		4.97% [middle of 12 runs]	4.72% [middle of 12 runs]	4.29% [middle of 12 runs]		561 nM [middle of 8 runs]	531 nM [middle of 4 runs]				
Cc1[nH]c2ccccc2c1CCNCc1ccc(/C=C/C(=O)NO)cc1	34.2% and 33.4% and 38.3%		0.26% (2×) and 0.27%				21.7 nM and 20.5 nM and 23.2 nM			108% and 102% and 86.4%	89.8% and 85.8% and 90.5%	83.8% and 79.4% and 81.5%	4.41% and 3.52% and 3.65%
Cc1cccc(N(C)C(=O)C2C(O)CCN2c2nc(C)cc(C(F)(F)F)c2C#N)c1 (stereo not given)	85.7% and 108% and 109%	86.3% and 92.3% and 87.3%	100% (2×) and 103%	87.2% and 85.6% and 91%	89.7% and 99.7% and 89%	88.3% and 93.8% and 78%	> 10000 nM						
Cc1cnc(CNC(=O)c2c(=O)c3ccc(N4CCCN(C)CC4)nc3n3c2sc2ccccc23)cn1	71.2% [middle of 12 runs]	40.9% [middle of 12 runs]	27% [middle of 12 runs]	16.7% [middle of 12 runs]	11.6% [middle of 12 runs]	11.3% [middle of 12 runs]		68.4 nM [middle of 11 runs]					
Cn1ncnc1[C@H]1c2n[nH]c(=O)c3cc(F)cc(c23)N[C@@H]1c1ccc(F)cc1	70% and 67.1% and 66.2%		36.7% and 29.4% and 34.7%				128 nM and 110 nM and 77.8 nM			97.2% and 105% and 82.2%	92.2% and 77% and 90.2%	76.3% and 86.3% and 86.2%	53.7% and 55% and 46.8%
Nc1ccn(C2OC(CO)C(O)C2(F)F)c(=O)n1 (stereo not given)	12.1% and 11.8% and 8.43%	5.96% and 5.24% and 5.38%	5.74% and 5.8% and 4.72%	6.33% and 6.36% and 4.79%	6.11% and 5.6% and 4.26%	5.62% and 5.26% and 4.2%	< 31.6 nM						
O=C(NO)c1cnc(N2CCN(S(=O)(=O)c3ccc4ccccc4c3)CC2)nc1	65% and 73.3% and 81.7%	24% and 32.4% and 40.8%	4.46% and 3.52% and 3.88%	0.24% and 0.3% and 0.34%	0.04% (2×) and 0.15%	0.06% and 0.13% and 0.05%	48.1 nM and 61 nM and 77.2 nM						
O=C(c1cc(Cc2n[nH]c(=O)c3ccccc23)ccc1F)N1CCN(C(=O)C2CC2)CC1	87.6% and 92% and 100%	91.8% and 91.9% and 84.2%	93.4% and 85.7% and 102%	77.6% and 81.8% and 83.7%	63.9% and 52.6% and 40%	26.5% and 25.6% and 20.9%	4760 nM and 3580 nM and 2430 nM						
O=c1[nH]cc(F)c(=O)[nH]1	109% and 96.5% and 111%	86.7% and 99.3% and 94.8%	99.8% and 104% and 106%	95.4% and 96.4% and 96.5%	69.2% and 93.7% and 84.7%	30.4% and 23.8% and 19.9%	5600 nM and 6490 nM and 5820 nM						
